System: 519858-162-T-J1-PDC complex spheroid growth, % test/control
Experiment: Anticancer human tumor 519858-162-T-J1-PDC patient-derived colon adenocarcinoma cell line growth inhibition [Asc]
Settings: for IC50: curve of first compound; for viability, T/C: stronger effect = lower value
How it was run: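 Tumor cells were grown as multicellular spheroids with stromal HUVEC and mesenchymal stem cells and treated singly or in combination. Concentrations fell in half-log steps from the clinical Cmax, or from 10 microM where none was known.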
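Also: seven day drug exposure begun three days after spheroid seeding.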
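For viability, T/C in this document: 100% = DMSO vehicle wells and lower values mean less viable spheroid.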

In the case of C=C(F)C(=O)N1CCN(c2nc(OCC3CCCN3C)nc3c2CCN(c2cccc4cccc(Cl)c24)C3)CC1CC#N (configuration not stated) + CCN1C(C(=O)NC23CCC(C(=O)O)(CC2)CC3)C(c2cccc(Cl)c2F)C2(C(=O)Nc3cc(Cl)ccc32)C12CCCCC2, the IC50 (second compound 0.00949 µM) is reported as 7.46 µM, the IC50 (second compound 0.03 µM) is reported as > 10 µM and the IC50 (second compound 0.0949 µM) is reported as > 10 µM. For the same compound, the IC50 (second compound 0.3 µM) was 9.03 µM, the IC50 (second compound 0.949 µM) was 4.55 µM and the IC50 (second compound 3 µM) was 2.79 µM. The viability, T/C (second compound 0.00949 µM, first compound 0.0316 µM) was 114%, the viability, T/C (second compound 0.00949 µM, first compound 0.1 µM) was 80.6% and the viability, T/C (second compound 0.00949 µM, first compound 0.316 µM) was 84.5%. The viability, T/C (second compound 0.00949 µM, first compound 1 µM) was 96.3%, the viability, T/C (second compound 0.00949 µM, first compound 3.16 µM) was 71.7% and the viability, T/C (second compound 0.00949 µM, first compound 10 µM) was 41.4%. It also gave a viability, T/C (second compound 0.03 µM, first compound 0.0316 µM) of 102%, a viability, T/C (second compound 0.03 µM, first compound 0.1 µM) of 84% and a viability, T/C (second compound 0.03 µM, first compound 0.316 µM) of 78.4%. For the same compound, the viability, T/C (second compound 0.03 µM, first compound 1 µM) was 84.3%, the viability, T/C (second compound 0.03 µM, first compound 3.16 µM) was 71.9% and the viability, T/C (second compound 0.03 µM, first compound 10 µM) was 52.5%. For the same compound, the viability, T/C (second compound 0.0949 µM, first compound 0.0316 µM) was 126%, the viability, T/C (second compound 0.0949 µM, first compound 0.1 µM) was 110% and the viability, T/C (second compound 0.0949 µM, first compound 0.316 µM) was 76.2%. It also gave a viability, T/C (second compound 0.0949 µM, first compound 1 µM) of 102%, a viability, T/C (second compound 0.0949 µM, first compound 3.16 µM) of 84.7% and a viability, T/C (second compound 0.0949 µM, first compound 10 µM) of 41.6%. The viability, T/C (second compound 0.3 µM, first compound 0.0316 µM) was 81%, the viability, T/C (second compound 0.3 µM, first compound 0.1 µM) was 73.8% and the viability, T/C (second compound 0.3 µM, first compound 0.316 µM) was 97.7%. It also gave a viability, T/C (second compound 0.3 µM, first compound 1 µM) of 90.5%, a viability, T/C (second compound 0.3 µM, first compound 3.16 µM) of 79.7% and a viability, T/C (second compound 0.3 µM, first compound 10 µM) of 47.2%. For the same compound, the viability, T/C (second compound 0.949 µM, first compound 0.0316 µM) was 95.5%, the viability, T/C (second compound 0.949 µM, first compound 0.1 µM) was 76.6% and the viability, T/C (second compound 0.949 µM, first compound 0.316 µM) was 96.7%. The viability, T/C (second compound 0.949 µM, first compound 1 µM) was 86.3%, the viability, T/C (second compound 0.949 µM, first compound 3.16 µM) was 58.1% and the viability, T/C (second compound 0.949 µM, first compound 10 µM) was 32.4%. For the same compound, the viability, T/C (second compound 3 µM, first compound 0.0316 µM) was 74.7%, the viability, T/C (second compound 3 µM, first compound 0.1 µM) was 81% and the viability, T/C (second compound 3 µM, first compound 0.316 µM) was 82.7%. For the same compound, the viability, T/C (second compound 3 µM, first compound 1 µM) was 70%, the viability, T/C (second compound 3 µM, first compound 3.16 µM) was 47.8% and the viability, T/C (second compound 3 µM, first compound 10 µM) was 26.2%.

Reference: PubChem BioAssay AID1963421 (Molecular Pharmacology Branch, DTP, NCI, 2024)
